Assay results: US20190382827A1, “USE OF MICROBIAL METABOLITES FOR TREATING DISEASES” (Yeda Research and Development Co. Ltd., priority 2015, published 2019)

How the values were obtained:
intestinal microbiota = test: 16S analysis of microbiota of mice given metabolites in drinking water; format: in vivo, mouse
From the text: Frozen fecal samples were processed for DNA isolation using the MoBio PowerSoil kit according to the manufacturer's instructions. For the 16S rRNA gene PCR amplification, ing of the purified fecal DNA was used for PCR amplification. Amplicons spanning the variable region 1/2 (V1/2) of the 16S rRNA gene were generated by using the following barcoded primers: Fwd 5′-XXXXXXXXAGAGTTTGATCCTGGCTCAG-3′ (SEQ ID NO: 1), Rev 5′-[…]-3′ (SEQ ID NO: 2), where X represents a barcode base. The reactions were subsequently pooled and cleaned (PCR clean kit, Promega), and the PCR products were then sequenced on an Illumina MiSeq in 500 bp paired-end method. The reads were then processed using the QIIME (Quantitative Insights Into Microbial Ecology, www(dot)qiime(dot)org) analysis pipeline as described (Caporaso et al., 2010; Elinav et al., 2011). In brief, fasta quality files and a mapping file indicating the barcode sequence corresponding to each sample were used as inputs, reads were split by samples according to the barcode, taxonomical classification was performed using the RDP-classifier, and an OTU table was created. Closed-reference OTU mapping was employed using the Greengenes database. Rarefaction was used to exclude samples with insufficient count of reads per sample. Sequences sharing 97% nucleotide sequence identity in the V2 region were binned into operational taxonomic units (97% ID OTUs). For beta-diversity, weighted unifrac measurements were plotted according to the two principal coordinates based on 1,000 reads per sample. The OTU tables used for our analyses are made accessible online.

commensal bacteria = test: Anaerobic microbiota cultures supplemented with metabolites; parameters: species or system mouse; conditions: anaerobic culturing
NLRP6 inflammasome = test: Colon explants cultured with metabolites (IL-18 ELISA, caspase-1 immunoblot, gene expression); format: cell-based, mouse; conditions: for caspase-1 cleavage / processing / IL-18 transcript (mRNA) levels: colonic explants; for caspase-1 cleavage / processing: 12 hours incubation, immunoblot p45/p20; for IL-18 protein levels: Nlrp3-/- explants; for IL-18 suppression with increasing doses: colonic explant-based validation screen; for suppression of IL-18 secretion, metabolite screen: cultured WT colon explants
Description: Colons were excised and washed thoroughly with PBS, homogenized in RIPA buffer containing protease inhibitors, incubated for 20 min in 4° C. and centrifuged for 20 min, 14,000 rpm at 4° C. Samples were separated on 15% acrylamide gels and transferred onto nitrocellulose membranes. Western blot analysis was performed using anti-caspase 1 p20 polyclonal antibody (Adipogen, AG-20B-0042B-C100) and Goat anti mouse antibody (Jackson ImmunoResearch, 115-035-003). Band density was calculated using ImageJ software. Colon pieces, 0.5 cm long, from the proximal colon were removed, rinsed with PBS, and weighed. The tissue explants were cultured for 24 hrs in DMEM medium containing 10% FBS, L-glutamine, penicillin, and streptomycin at 37° C. Culture medium was collected, centrifuged and the resulting supernatant stored in aliquots at -20° C. Concentrations of IL-18 in the serum or culture supernatants were measured using ELISA. […] Samples were then washed and plates were incubated with anti-mouse IL-18-biotin antibody ([…]-6 MBL) for 1 hour and HRP-Avidin (BioLegend) for 1 hour before quantification. […] For AMP induction in-vitro, 3 μg IL-18 were added to colon explants for 7 hours, then the explants were maintained in RNAlater and RNA was extracted. Tissues were preserved in RNAlater solution (Ambion) and subsequently homogenized in Tri Reagent (Fox et al.). RNA was purified according to the manufacturer's instructions. Two microgram of total RNA was used to generate cDNA (HighCapacity cDNA Reverse Transcription kit; Applied Biosystems). RealTime-PCR was performed using gene-specific primer/probe sets (Applied Biosystems) and Kapa Probe Fast qPCR kit (Kapa Biosystems) on a Viia7 instrument (Applied Biosystems). PCR conditions were 95° C. for 20 s, followed by 40 cycles of 95° C. for 3 s and 60° C. for 30 s. Data were analyzed using the deltaCt method with hprt serving as the reference housekeeping gene.

Row | SMILES | composition of the intestinal microbiota (intestinal microbiota; Asc-/- or Nlrp6-/- mice) | composition of the intestinal microbiota (intestinal microbiota; WT mice) | composition of anaerobic microbiota cultures (commensal bacteria) | AMPs (Ang4) expression (NLRP6 inflammasome; WT explants cultured for 8 hours) | dependence of IL-18 induction on NLRP6 / NLRP3 (NLRP6 inflammasome; WT, Nlrp6-/- and Nlrp3-/- colon explants) | inflammasome suppression (IL-18 production) by spermine or histamine upon concomitant taurine (NLRP6 inflammasome; colon explants cultured with histamine and spermine, with addition of taurine) | caspase-1 cleavage / processing (NLRP6 inflammasome) | IL-18 induction (NLRP6 inflammasome; sterile WT colonic explants, metabolite screen and increasing doses) | IL-18 protein levels (NLRP6 inflammasome) | IL-18 suppression with increasing doses (NLRP6 inflammasome) | IL-18 transcript (mRNA) levels (NLRP6 inflammasome) | suppression of IL-18 secretion, metabolite screen (NLRP6 inflammasome)
1 | NCCS(=O)(=O)O [taurine] | did not occur | induced compositional changes | did not feature significant compositional alterations | induced upregulation | dependent on NLRP6, but not on NLRP3 | rescued | enhanced | strongest dose-dependent inductive activity | – | – | – | –
2 | NCCc1c[nH]cn1 [histamine] | – | induced compositional changes | did not feature significant compositional alterations | – | – | – | reduced | – | decreased | concentration-dependent IL-18 suppressive functions | no change | strongest suppressors
3 | NCCCNCCCCNCCCN [spermine] | – | induced compositional changes | did not feature significant compositional alterations | – | – | – | reduced | – | decreased | concentration-dependent IL-18 suppressive functions | no change | strongest suppressors
